PubChem BioAssay AID256 (DTP/NCI, 2004)
“And” between values parts separate entries of the source, which are not always exact repeats. Equal values may be shown once. Inconclusive results and toxic doses are left out. How the source made its calls: active means survival T/C of 150% or more; inactive means T/C below 125% in these data.

System: CD2F1 mice, L1210 leukemia ip, survival T/C
Assay: NCI In Vivo Anticancer Drug Screen. Data for tumor model L1210 Leukemia (intraperitoneal) in CD2F1 (CDF1) mice
Conditions: higher = longer survival
How it was run: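 Ratio T/C, where T is the treated-group value and C the vehicle-dosed control value, from mice implanted with a transplantable tumor.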

[1] = endpoint: mean survival time, dose: 50.0 mg/kg/injection, schedule: Q01DX009 (ip), vehicle: saline with Tween-80
[2] = endpoint: mean survival time, dose: 100.0 mg/kg/injection, schedule: Q01DX009 (ip), vehicle: saline with Tween-80
[3] = endpoint: mean survival time, dose: 200.0 mg/kg/injection, schedule: Q01DX009 (ip), vehicle: saline with Tween-80
[4] = endpoint: mean survival time, dose: 100.0 mg/kg/injection, schedule: Q01DX001 (ip), vehicle: saline with Tween-80
[5] = endpoint: mean survival time, dose: 200.0 mg/kg/injection, schedule: Q01DX001 (ip), vehicle: saline with Tween-80
[6] = endpoint: mean survival time, dose: 400.0 mg/kg/injection, schedule: Q01DX001 (ip), vehicle: saline with Tween-80
[7] = endpoint: mean survival time, dose: 100.0 mg/kg/injection, schedule: Q04DX003 (ip), vehicle: saline with Tween-80
[8] = endpoint: mean survival time, dose: 200.0 mg/kg/injection, schedule: Q04DX003 (ip), vehicle: saline with Tween-80

Measured: T/C

CCC1(O)C(=O)OCc2c1cc1n(c2=O)Cc2cc3ccc(CO)cc3nc2-1 (stereo not given)
inactive: endpoint: median survival time, dose: 4.0 mg/kg/injection, schedule: Q04DX002 (ip), vehicle: saline with Tween-80 100 % of control | endpoint: median survival time, dose: 8.0 mg/kg/injection, schedule: Q04DX002 (ip), vehicle: saline with Tween-80 113 % of control | endpoint: median survival time, dose: 16.0 mg/kg/injection, schedule: Q04DX002 (ip), vehicle: saline with Tween-80 98 % of control | endpoint: median survival time, dose: 32.0 mg/kg/injection, schedule: Q04DX002 (ip), vehicle: saline with Tween-80 108 % of control

COc1cc2c(cc1OC)C(Cc1ccc(NC(=O)c3ccc(C(=O)Nc4ccc(CC5c6cc(OC)c(OC)cc6CCN5C)cc4)cc3)cc1)N(C)CC2 (stereo not given)
inactive: endpoint: mean survival time, dose: 100.0 mg/kg/injection, schedule: Q01DX001 (ip), vehicle: other 107 % of control | endpoint: mean survival time, dose: 200.0 mg/kg/injection, schedule: Q01DX001 (ip), vehicle: other 101 % of control | endpoint: mean survival time, dose: 400.0 mg/kg/injection, schedule: Q01DX001 (ip), vehicle: other 103 % of control

COc1ccc(OC)c(/C=C/c2ccnc3ccccc23)c1
inactive: endpoint: median survival time, dose: 50.0 mg/kg/injection, schedule: Q01DX009 (ip), vehicle: saline with Tween-80 102 % of control | endpoint: median survival time, dose: 100.0 mg/kg/injection, schedule: Q01DX009 (ip), vehicle: saline with Tween-80 101 % of control | endpoint: median survival time, dose: 200.0 mg/kg/injection, schedule: Q01DX009 (ip), vehicle: saline with Tween-80 108 % of control | endpoint: median survival time, dose: 400.0 mg/kg/injection, schedule: Q01DX009 (ip), vehicle: saline with Tween-80 113 % of control

NC(=O)c1cn(C2OC(CO)C(O)C2O)c2ncn3ncnc3c12 (stereo not given)
inactive: endpoint: mean survival time, dose: 3.13 mg/kg/injection, schedule: Q01DX005 (ip), vehicle: water 113 % of control | endpoint: mean survival time, dose: 6.25 mg/kg/injection, schedule: Q01DX005 (ip), vehicle: water 112 % of control | endpoint: mean survival time, dose: 12.5 mg/kg/injection, schedule: Q01DX005 (ip), vehicle: water 116 % of control | endpoint: mean survival time, dose: 50.0 mg/kg/injection, schedule: Q01DX005 (ip), vehicle: water 98 % of control

C[CH2][Pb]([CH2]C)([CH2]C)[O]C(=O)c1cc(-c2ccccc2)nc2ccccc12
inactive: endpoint: mean survival time, dose: 1.56 mg/kg/injection, schedule: Q01DX009 (ip), vehicle: saline with Tween-80 98 % of control | endpoint: mean survival time, dose: 3.13 mg/kg/injection, schedule: Q01DX009 (ip), vehicle: saline with Tween-80 98 % of control | endpoint: mean survival time, dose: 6.25 mg/kg/injection, schedule: Q01DX009 (ip), vehicle: saline with Tween-80 91 % of control and 104 % of control

Cc1ccc(NC(=O)Nc2ccc(S(N)(=O)=O)cc2)cc1C
inactive: [1] 96 % of control | [2] 87 % of control | [3] 87 % of control

Cc1oc2c(C)c3oc(=O)cc(C)c3cc2c1CCl
inactive: endpoint: mean survival time, dose: 12.5 mg/kg/injection, schedule: Q01DX009 (ip), vehicle: saline with Tween-80 101 % of control and 105 % of control | endpoint: mean survival time, dose: 25.0 mg/kg/injection, schedule: Q01DX009 (ip), vehicle: saline with Tween-80 96 % of control and 105 % of control | [1] 96 % of control and 108 % of control | [2] 109 % of control | [3] 91 % of control

O=c1cc(Cl)ncn1C1OC(CO)C(O)C1O (stereo not given)
inactive: endpoint: median survival time, dose: 12.5 mg/kg/injection, schedule: Q01DX005 (ip), vehicle: saline 108 % of control | endpoint: median survival time, dose: 25.0 mg/kg/injection, schedule: Q01DX005 (ip), vehicle: saline 104 % of control | endpoint: median survival time, dose: 50.0 mg/kg/injection, schedule: Q01DX005 (ip), vehicle: saline 95 % of control | endpoint: median survival time, dose: 100.0 mg/kg/injection, schedule: Q01DX005 (ip), vehicle: saline 97 % of control | endpoint: median survival time, dose: 200.0 mg/kg/injection, schedule: Q01DX005 (ip), vehicle: saline 97 % of control

Cc1ccc(/C(C#N)=C2C=C(Br)/C(=N\O)C=C/2Cl)cc1
inactive: endpoint: mean survival time, dose: 25.0 mg/kg/injection, schedule: Q01DX009 (ip), vehicle: acetone 96 % of control | endpoint: mean survival time, dose: 50.0 mg/kg/injection, schedule: Q01DX009 (ip), vehicle: acetone 98 % of control | endpoint: mean survival time, dose: 100.0 mg/kg/injection, schedule: Q01DX009 (ip), vehicle: acetone 98 % of control

O=P(OCc1ccccc1)(N(CCCl)CCCl)N1CCN(P(=O)(OCc2ccccc2)N(CCCl)CCCl)CC1 (stereo not given)
inactive: endpoint: mean survival time, dose: 128.0 mg/kg/injection, schedule: Q01DX Z (ip), vehicle: saline 104 % of control | endpoint: mean survival time, dose: 256.0 mg/kg/injection, schedule: Q01DX Z (ip), vehicle: saline 107 % of control | endpoint: mean survival time, dose: 512.0 mg/kg/injection, schedule: Q01DX Z (ip), vehicle: saline 113 % of control

O=C(COCC(=O)N/N=C/c1ccc(Cl)c(Cl)c1)N/N=C/c1ccc(Cl)c(Cl)c1
inactive: [4] 94 % of control | [5] 94 % of control | [6] 96 % of control

O=C(CCl)c1cc(Cl)c(O)c(Cl)c1
inactive: endpoint: mean survival time, dose: 50.0 mg/kg/injection, schedule: Q01DX001 (ip), vehicle: carboxymethylcellulose (CMC) 97 % of control

O=C(COc1cccc(Cl)c1)NCc1ccc(NC(=O)c2ccc(S(=O)(=O)F)cc2)cc1
inactive: [4] 96 % of control | [5] 91 % of control | [6] 87 % of control

OC1CC2c3ccccc3C1c1cccc[n+]12 (stereo not given)
inactive: endpoint: mean survival time, dose: 100.0 mg/kg/injection, schedule: Q04DX003 (ip), vehicle: Klucel (hydroxypropylcellulose) (HPC) 94 % of control

CCCCCC(=O)CCCC
inactive: [1] 109 % of control | [2] 102 % of control | [3] 105 % of control

Cc1cccc(OCC(=O)O)c1
inactive: [1] 97 % of control | [2] 95 % of control | [7] 95 % of control | [3] 90 % of control | [8] 93 % of control

NC(=O)NC(S(=O)(=O)O)S(=O)(=O)O
inactive: endpoint: mean survival time, dose: 100.0 mg/kg/injection, schedule: Q01DX001 (ip), vehicle: saline 96 % of control | endpoint: mean survival time, dose: 200.0 mg/kg/injection, schedule: Q01DX001 (ip), vehicle: saline 101 % of control | endpoint: mean survival time, dose: 400.0 mg/kg/injection, schedule: Q01DX001 (ip), vehicle: saline 101 % of control

CC(C)S(=O)(=O)/C=C(\I)c1ccccc1
inactive: endpoint: mean survival time, dose: 100.0 mg/kg/injection, schedule: Q04DX003 (ip), vehicle: saline 100 % of control | endpoint: mean survival time, dose: 200.0 mg/kg/injection, schedule: Q04DX003 (ip), vehicle: saline 102 % of control

COc1cc(OC)cc(C(=O)Cl)c1
inactive: endpoint: mean survival time, dose: 100.0 mg/kg/injection, schedule: Q04DX003 (ip), vehicle: saline sonified 98 % of control | endpoint: mean survival time, dose: 200.0 mg/kg/injection, schedule: Q04DX003 (ip), vehicle: saline sonified 95 % of control | endpoint: mean survival time, dose: 400.0 mg/kg/injection, schedule: Q04DX003 (ip), vehicle: saline sonified 91 % of control

CCCC(C)(C)O
inactive: [7] 104 % of control | [8] 107 % of control | endpoint: mean survival time, dose: 400.0 mg/kg/injection, schedule: Q04DX003 (ip), vehicle: saline with Tween-80 101 % of control

CC(C)(CC/C(=N\Nc1ccc([N+](=O)[O-])cc1[N+](=O)[O-])c1ccccc1)C1OCCO1
inactive: endpoint: mean survival time, dose: 50.0 mg/kg/injection, schedule: Q04DX002 (ip), vehicle: saline with Tween-80 90 % of control | endpoint: mean survival time, dose: 100.0 mg/kg/injection, schedule: Q04DX002 (ip), vehicle: saline with Tween-80 98 % of control | endpoint: mean survival time, dose: 200.0 mg/kg/injection, schedule: Q04DX002 (ip), vehicle: saline with Tween-80 94 % of control

CC(=O)OC1OC(CS[As](C)C)C(OC(C)=O)C(OC(C)=O)C1OC(C)=O (stereo not given)
inactive: endpoint: mean survival time, dose: 50.0 mg/kg/injection, schedule: Q01DX009 (ip), vehicle: other 96 % of control | endpoint: mean survival time, dose: 100.0 mg/kg/injection, schedule: Q01DX009 (ip), vehicle: other 108 % of control | endpoint: mean survival time, dose: 200.0 mg/kg/injection, schedule: Q01DX009 (ip), vehicle: other 93 % of control
